The text below walks through data of patent publication US9957271B2, “Substituted bicyclic aza-heterocycles and analogues as sirtuin modulators” (GlaxoSmithKline, LLC, priority 2012, dated 2018).

A value given as a limit tells only on which side of the number the result lay.

Experiment [1] concerns the target T1, SIRT1 (Homo sapiens, UniProt Q96EB6).
T1 sequence (Q96EB6 1-747): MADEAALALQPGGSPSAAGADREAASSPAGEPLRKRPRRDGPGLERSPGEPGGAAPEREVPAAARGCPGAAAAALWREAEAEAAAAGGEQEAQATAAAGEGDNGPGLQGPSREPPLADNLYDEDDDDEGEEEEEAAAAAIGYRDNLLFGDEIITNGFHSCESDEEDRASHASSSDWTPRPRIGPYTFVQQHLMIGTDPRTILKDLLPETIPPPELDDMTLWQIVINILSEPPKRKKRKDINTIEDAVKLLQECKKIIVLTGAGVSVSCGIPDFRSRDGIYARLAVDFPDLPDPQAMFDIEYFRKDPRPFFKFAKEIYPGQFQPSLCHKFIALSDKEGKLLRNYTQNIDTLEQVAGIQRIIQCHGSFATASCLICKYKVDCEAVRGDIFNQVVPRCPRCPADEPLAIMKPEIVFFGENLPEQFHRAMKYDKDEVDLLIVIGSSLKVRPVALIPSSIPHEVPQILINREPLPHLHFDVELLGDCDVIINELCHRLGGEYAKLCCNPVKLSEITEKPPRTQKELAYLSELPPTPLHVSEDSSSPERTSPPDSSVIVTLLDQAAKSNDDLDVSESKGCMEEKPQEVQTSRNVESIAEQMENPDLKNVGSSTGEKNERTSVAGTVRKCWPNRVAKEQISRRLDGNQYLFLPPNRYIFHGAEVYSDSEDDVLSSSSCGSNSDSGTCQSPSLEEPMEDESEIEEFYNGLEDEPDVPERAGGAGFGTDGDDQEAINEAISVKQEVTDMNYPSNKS
Put plainly: TAMRA based mass spectrometry assay of SIRT1 activity. The format is biochemical. Conditions: TAMRA assay; for TAMRA EC1.5 (μM): concentration giving 150% activation of SIRT1; for Emax: percent maximum fold activation, read-out: TAMRA % Fold Act. In a few lines:
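Deacetylation of a biotinylated, TAMRA-tagged p53-based peptide (0.5 μM) by 10 nM His-tagged SIRT1 with 120 μM βNAD+, 25 °C for 25 min, pH 8 Tris-acetate buffer, across a compound concentration range. Quenched by formic acid and read by mass spec as product peptide or OAADPR; activity relative to DMSO reactions, nicotinamide defining maximal inhibition.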

The target of experiment [2] is T1, SIRT1. Kind of experiment: Trp mass spectrometry assay of SIRT1 activity. The format is biochemical. Conditions: Trp assay; for Trp EC1.5 (μM): concentration giving 150% activation of SIRT1; for Emax: percent maximum fold activation, read-out: Trp % Fold Act. In a few lines: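 Activation readout: EC1.5 (concentration raising activity 50% over control) and percent maximum activation, from mass-spec quantitation of OAADPR or deacetylated Trp peptide. Reaction: 0.5 μM acetylated Trp peptide, 120 μM βNAD+, 10 nM bacterially expressed N-His SIRT1, pH 7.5 HEPES buffer with […], 25 min at 25° C.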

On to `Cc1nc2ccc(-c3ccccc3Cl)nn2c1NC(=O)c1ccncn1` [Compound 348], for which, at SIRT1 [1], the “TAMRA EC1.5 (μM)” value is “C (EC1.5>25 μM)” and the Emax is below 350%. Besides, on SIRT1 [2], the “Trp EC1.5 (μM)” value was “C (EC1.5>25 μM)” and the Emax is below 350%.
As to `Cc1nc(C(=O)Nc2c(C)nc3ccc(-c4ccccc4Cl)nn23)cs1` [Compound 351], at SIRT1 [1], the “TAMRA EC1.5 (μM)” value is recorded as “B (EC1.5 1-25 μM)” and the Emax was below 350%. For the same molecule, at SIRT1 [2], the “Trp EC1.5 (μM)” value is listed as “C (EC1.5>25 μM)” and the Emax is below 350%.
In the case of `Cc1nc(C(=O)Nc2c(C)nc3ccc(-c4ccccc4Cl)nn23)c(C)s1` [Compound 352], at SIRT1 [1], the “TAMRA EC1.5 (μM)” value is recorded as “B (EC1.5 1-25 μM)” and the Emax was below 350%. Besides, at SIRT1 [2], the “Trp EC1.5 (μM)” value was “C (EC1.5>25 μM)” and the Emax is below 350%.
As to `Cc1cnc(C(=O)Nc2c(C)nc3ccc(-c4ccccc4Cl)nn23)s1` [Compound 354], at SIRT1 [1], the “TAMRA EC1.5 (μM)” value is “B (EC1.5 1-25 μM)” and the Emax was below 350%. At SIRT1 [2], the “Trp EC1.5 (μM)” value was “C (EC1.5>25 μM)” and the Emax is below 350%.
In the case of `Cc1nc2ccc(-c3ccccc3Cl)nn2c1NC(=O)c1cccc(OCC(O)CO)n1` (centres unmarked) [Compound 357], at SIRT1 [1], the “TAMRA EC1.5 (μM)” value is listed as “C (EC1.5>25 μM)” and the Emax is below 350%. On SIRT1 [2], the “Trp EC1.5 (μM)” value is “C (EC1.5>25 μM)” and the Emax was below 350%.
Take `O=C(Nc1ccncn1)c1cnc2ccc(-c3ccccc3OC(F)(F)F)nn12` [Compound 358]: at SIRT1 [1], the “TAMRA EC1.5 (μM)” value is “A (EC1.5<1 μM)” and the Emax was at least 350%. In addition, on SIRT1 [2], the “Trp EC1.5 (μM)” value is “B (EC1.5 1-25 μM)” and the Emax was at least 350%.
As to `O=C(Nc1ccc(F)cn1)c1cnc2ccc(-c3ccccc3OC(F)(F)F)nn12` [Compound 360], at SIRT1 [1], the “TAMRA EC1.5 (μM)” value is given as “B (EC1.5 1-25 μM)” and the Emax was below 350%. Further, at SIRT1 [2], the “Trp EC1.5 (μM)” value is listed as “A (EC1.5<1 μM)” and the Emax is below 350%.
As to `Cc1cc(NC(=O)c2cnc3ccc(-c4ccccc4OC(F)(F)F)nn23)ccn1` [Compound 364], at SIRT1 [1], the “TAMRA EC1.5 (μM)” value is recorded as “A (EC1.5<1 μM)” and the Emax is at least 350%. Further, on SIRT1 [2], the “Trp EC1.5 (μM)” value is “A (EC1.5<1 μM)” and the Emax is at least 350%.
Turning to `Cc1cccc(NC(=O)c2cnc3ccc(-c4ccccc4OCC(O)CO)nn23)n1` (centres unmarked) [Compound 369], at SIRT1 [1], the “TAMRA EC1.5 (μM)” value is “A (EC1.5<1 μM)” and the Emax was at least 350%. Further, at SIRT1 [2], the “Trp EC1.5 (μM)” value is reported as “B (EC1.5 1-25 μM)” and the Emax was at least 350%.
For `O=C(Nc1cccc(N2CCOCC2)n1)c1cnc2ccc(-c3cccc(OCC(O)CO)c3)nn12` (centres unmarked) [Compound 372], on SIRT1 [1], the “TAMRA EC1.5 (μM)” value is on record as “A (EC1.5<1 μM)” and the Emax was at least 350%. For the same molecule, at SIRT1 [2], the “Trp EC1.5 (μM)” value was “A (EC1.5<1 μM)” and the Emax is below 350%.
On to `Cc1nc2ccc(-c3ccccc3C(F)(F)F)nn2c1NC(=O)c1ccccn1` [Compound 375], for which, on SIRT1 [1], the “TAMRA EC1.5 (μM)” value was “B (EC1.5 1-25 μM)” and the Emax is at least 350%. For the same molecule, at SIRT1 [2], the “Trp EC1.5 (μM)” value was “C (EC1.5>25 μM)” and the Emax is below 350%.
For `Cc1nc2ccc(-c3ccccc3C(F)(F)F)nn2c1NC(=O)c1ccncn1` [Compound 377], in that order: “B (EC1.5 1-25 μM)”, below 350%, “C (EC1.5>25 μM)” and below 350%.
In the same order, the values of `Cc1nc2ccc(-c3ccccc3C(F)(F)F)nn2c1NC(=O)c1nccs1` [Compound 380] are “B (EC1.5 1-25 μM)”, at least 350%, “C (EC1.5>25 μM)” and below 350%.
For `Cc1cnc(C(=O)Nc2c(C)nc3ccc(-c4ccccc4C(F)(F)F)nn23)s1` [Compound 381], in that order: “B (EC1.5 1-25 μM)”, at least 350%, “C (EC1.5>25 μM)” and below 350%.
